What was measured:
[1] = system: T. b. brucei - STIB795; assay: In vivo efficacy, acute T. b. brucei STIB795 infection model in mice; design: species or system mouse (NMRI); details: for average (survival days) / cured/infected: 4 × 50 mg/kg i.p., NMRI mice; for average (survival days): control 6; for activity in the model (lengthening the survival days) / mice cured: STIB795 model, footnote of Table 4; for protection from lethal effects of infection: controls died on average by Day 6
Protocol: Compounds are tested for efficacy in the acute model for T. b. brucei infection (Bitonti A J, Byers T L, Bush T L, Casara P J, Bacchi C J, Clarkson A B, Jr., McCann P P, Sjoerdsma A, 1990. Cure of Trypanosoma brucei brucei and Trypanosoma brucei rhodesiense infections in mice with an irreversible inhibitor of S-adenosylmethionine decarboxylase. Antimicrob Agents Chemother 34: 1485-1490). Briefly, mice are infected with 1×10^4 strain STIB 795 trypanosomes on Day 0, then treated once/day (50 mg/kg i.p) with test compound for 4 days starting on Day 3. Animals are assessed by microscopic examination of blood smears twice/week through Day 60. Untreated animals generally die by Days 7-9.

[2] = physchem

Structure (SMILES)	survival of treated animals [1]	average (survival days) [1] [days]	cured/infected ([1]; 20 Days) [Days 0/4]	cured/infected ([1]; >30 Days)	parasites on Day 20 ([1]; Day 20)	parasites on Day 30 ([1]; Day 30)	activity in the model (lengthening the survival days) [1]	mice cured ([1]; listed as Compound No. 4)	protection from lethal effects of infection [1]	cured/infected ([1]; 26 Days) [Days 2/4]	mice cured [1]	logD [2]
Cc1nc2c(N)ncnc2n1[C@@H]1O[C@H](CN(C)C/C=C\CN)[C@@H](O)[C@H]1O (stereo in doubt) [Compound 4]	all survived through Day 30	>30	20	1/4	appeared free of parasites	parasites were again evident	active in the model in terms of lengthening the survival days	¼	protected mice from lethal effects of infection	–	–	–
CN(C/C=C\CN)CC1OC(n2cnc3c(N)ncnc32)C(O)C1O (centres unmarked) [MDL-73811, reference compound]	all survived through Day 30	>30	–	1/4	–	–	active in the model in terms of lengthening the survival days	–	protected mice from lethal effects of infection	26	¼	-1.8

Source: patent US8633168B2, “Inhibitors of S-adenosyl-L-methionine decarboxylase” (Genzyme Corporation, priority 2007, dated 2014)
